Test results reported in patent publication EP0044992A1, “Lactams, process for their preparation and pharmaceutical compositions containing them” (Dr. Karl Thomae GmbH, priority 1980, dated 1982).
Values after ≈ are worked out from the molar mass of the structure shown.

How the values were obtained:
[1] = test system: Klebsiella pneumoniae BC 6; assay: Serial dilution test in microtiter system (bacteriostasis, MIC); type: cell-based; settings: BC6, liquid medium, 18 to 20 h at 37 °C, read-out: Minimale Hemmkonzentration Kl.pneum. BC 6
Procedure: (§1) Für die Untersuchungen wurde die Methode des Reihenverdünnungstestes im Mikrotitersystem angewandt. Die Prüfung der Substanzen auf Bakteriostase erfolgte in flüssigem Medium. Es wurde die Bakteriostasewirkung bei folgenden Konzentrationen untersucht: • 128, 64, 32, 16, 8, 4, 2, 1, 0,5, 0,25, 0,12, 0,06jug/ml. Es wurde ein Nährboden folgender Zusammensetzung benutzt: 10 g Pepton, 8 g Fleischextrakt-Oxoid, 3 g Natriumchlorid, 2 g sek. Natriumphosphat werden mit dest. Wasser auf […] aufgefüllt (pH 7,2 - 7,4). Lediglich bei der Testung gegen Streptokokken wurde 1 % Glucose hinzugefügt. Das Alter der Primärkulturen betrugt etwa 20 Stunden. Die Einstellung der Keimsuspension erfolgte am Photometer (nach "Eppendorf") (Reagenzglas-Durchmesser 14 mm, Filter 546nm) anhand der Trübung einer Bariumsulfat-Vergleichssuspension, die durch eine Bariumsulfat-Aufschwemmung erzeugt wurde, welche durch die Zugabe von 3,0 ml 1%ige Barium-chloridlösung in 97 ml 1%ige Schwefelsäure entstand. Nach der Einstellung wurden Streptococcus Aronson im Verhältnis 1:15 und die übrigen Testkeime im Verhältnis 1:1500 mit einer Kochsalzlösung weiter verdünnt.
(§2) 16 mg der jeweiligen Substanz wurden in 10 ml-Meßkolben eingewogen und mit dem Lösungsmittel bis zur Marke aufgefüllt. Die weitere Verdünnungsreihe wurde mit destilliertem Wasser oder dem jeweiligen Lösungsmittel hergestellt.
(§3) Die Vertiefungen der Mikrotiterplatten wurden mit 0,2 ml Nährmedium, 0,01 ml der entsprechenden Substanzverdünnung und mit einem Tropfen Keimsuspension (0,01 ml) beschickt und 18 bis 20 Stunden bei 37 °C bebrütet. Eine Lösungsmittelkontrolle wurde stets mitgeführt.
(§4) Die Ablesung wurde makroskopisch vorgenommen, wobei die jeweilige Grenzkonzentration (= niedrigste noch bakteriostatisch wirksame Konzentration) ermittelt wurde.
(§5) Als Testorganismen wurden benützt: • Staphylococcus aureus SG 511, Escherichia coli ATCC 11 775, Pseudomonas aeruginosa Hamburgensis und Pseudomonas; aeruginosa walter, Serratia marcescens ATCC 13 880, Klebsiella pneumoniae ATCC 10 031 und BC 6, Proteus mirabilis Hamburgensis, Proteus rettgeri, Enterobacter cloacae ATCC 13 047, E. coli R+TEM (ß-Lactamase-Träger).

[2] = test system: Proteus mirabilis Hamburgensis; assay: as above; type: cell-based; settings: liquid medium, 18 to 20 h at 37 °C, read-out: Minimale Hemmkonzentration Prot. mirab. Hbg.
Procedure: as §1, §2, §3, §4, §5

[3] = test system: Proteus rettgeri; assay: as above; type: cell-based; settings: Providencia rettgeri; liquid medium, 18 to 20 h at 37 °C; read-out: Minimale Hemmkonzentration Prot. Rettg.
Procedure: as §1, §2, §3, §4, §5

[4] = test system: Enterobacter cloacae ATCC 13 047; assay: as above; type: cell-based; settings: liquid medium, 18 to 20 h at 37 °C, read-out: Minimale Hemmkonzentration Ent. cloacae ATCC 13047
Procedure: as §1, §2, §3, §4, §5

[5] = test system: Klebsiella pneumoniae ATCC 10 031; assay: as above; type: cell-based; settings: liquid medium, 18 to 20 h at 37 °C, read-out: Minimale Hemmkonzentration Kl.pneum. ATCC 10031
Procedure: as §1, §2, §3, §4, §5

[6] = test system: Serratia marcescens ATCC 13 880; assay: as above; type: cell-based; settings: liquid medium, 18 to 20 h at 37 °C, read-out: Minimale Hemmkonzentration Serr. marcesc. ATCC 13880
Procedure: as §1, §2, §3, §4, §5

[7] = test system: Pseudomonas aeruginosa walter; assay: as above; type: cell-based; settings: liquid medium, 18 to 20 h at 37 °C, read-out: Minimale Hemmkonzentration Pseud.W.
Procedure: as §1, §2, §3, §4, §5

[8] = test system: Pseudomonas aeruginosa Hamburgensis; assay: as above; type: cell-based; settings: liquid medium, 18 to 20 h at 37 °C, read-out: Minimale Hemmkonzentration Pseud. Hbg.
Procedure: as §1, §2, §3, §4, §5

[9] = test system: Staphylococcus aureus SG 511; assay: as above; type: cell-based; settings: SG511, liquid medium, 18 to 20 h at 37 °C, read-out: Minimale Hemmkonzentration Staph. aureus SG 511
Procedure: as §1, §2, §3, §4, §5

[10] = test system: E. coli R+TEM (ß-Lactamase-Träger); assay: as above; type: cell-based; settings: Escherichia coli, read-out: Minimale Hemmkonzentration E.coli R+TEM
Procedure: as §1, §2, §3, §4, §5

[11] = test system: Escherichia coli ATCC 11 775; assay: as above; type: cell-based; settings: liquid medium, 18 to 20 h at 37 °C, read-out: Minimale Hemmkonzentration E.coli ATCC 11775
Procedure: as §1, §2, §3, §4, §5

[12] = test system: E. coli ATCC 11 775; assay: In vivo activity, experimental intraperitoneal E. coli infection in mice; design: species or system Mäuse; settings: Escherichia coli, ATCC11, sc, 168 h; female NMRI mice, i.p. E. coli infection, s.c. application once 1 h after infection, 7 days observation; dose at which 50 % of animals survive
Procedure: Eine Reihe von erfindungsgemäßen Verbindungen wurde in vivo bei experimentellen Infektionen an Mäusen untersucht. Man verwendete als pathogene Bakterien E. coli ATCC 11 775. Es wurde eine intraperitoneale Infektion mit 0,2 ml einer Bakteriensuspension (mit 5 % Mucin) gesetzt. Dies entspricht etwa 1,4 x 10^6 Keime E. coli/Maus. Weibliche Mäuse vom Stamm NMRI wurden in Gruppen von jeweils 10 Tieren aufgeteilt, zwei Gruppen blieben unbehandelt, die restlichen Gruppen wurden mit verschiedenen Dosen der jeweiligen erfindungsgemäßen Penicilline und Cephalosporine subcutan zur Bestimmung der ED50 (Dosis bei der 50 % der Tiere überleben) behandelt. Es wurde einmal eine Stunde: nach Setzen der Injektion therapiert.
Der Beobachtungszeitraum betrug in beiden Fällen 7 Tage. Die Ergebnisse dieser Teste mit repräsentativen Vertretern der erfindungsgemäßen Penicilline und Cephalosporine sind in der Tabelle 2 dargestellt.

| SMILES | MIC [1] [µg/mL] | MIC [2] [µg/mL] | MIC [3] [µg/mL] | MIC [4] [µg/mL] | MIC [5] [µg/mL] | MIC [6] [µg/mL] | MIC [7] [µg/mL] | MIC [8] [µg/mL] | MIC [9] [µg/mL] | MIC [10] [µg/mL] | MIC [11] [µg/mL] | ED50 [12] [mg/kg] |
| --- | --- | --- | --- | --- | --- | --- | --- | --- | --- | --- | --- | --- |
| CCOC(=O)Oc1ccc([C@@H](NC(=O)Nc2cnc(Nc3ccc(S(N)(=O)=O)cc3)nc2O)C(=O)N[C@@H]2C(=O)N3[C@@H]2SC(C)(C)[C@@H]3C(=O)O)cc1 [A, D-α-[3-(2-p-Aminosulfonylanilino-4-hydroxy-5-pyrimidinyl)-ureido]-p-äthoxycarbonyloxy-benzylpenicillin-Natrium] | 2 (≈ 2.69 µM) | 0.12 (≈ 0.161 µM) | 1 (≈ 1.34 µM) | 1 (≈ 1.34 µM) | 2 (≈ 2.69 µM) | 0.25 (≈ 0.336 µM) | 2 (≈ 2.69 µM) | 2 (≈ 2.69 µM) | 0.5 (≈ 0.671 µM) | > 64 | 0.25 (≈ 0.336 µM) | 5.5 |
| CC1(C)S[C@@H]2[C@H](NC(=O)[C@H](NC(=O)N3CCNC3=O)c3ccccc3)C(=O)N2[C@H]1C(=O)O [Azlocillin, reference compound] | 32 (≈ 69.3 µM) | 2 (≈ 4.33 µM) | 8 (≈ 17.3 µM) | 32 (≈ 69.3 µM) | 32 (≈ 69.3 µM) | 4 (≈ 8.67 µM) | 8 (≈ 17.3 µM) | 8 (≈ 17.3 µM) | 2 (≈ 4.33 µM) | > 64 | 8 to 16 (≈ 17.3 to 34.7 µM) | > 100 |
| CC(=O)Oc1ccc([C@@H](NC(=O)Nc2cnc(Nc3ccc(S(N)(=O)=O)cc3)nc2O)C(=O)N[C@@H]2C(=O)N3[C@@H]2SC(C)(C)[C@@H]3C(=O)O)cc1 [B, D-α-[3-(2-p-Aminosulfonylanilino-4-hydroxy-5-pyrimidinyl)-ureido]-p-methylcarbonyloxy-benzylpenicillin-Natrium] | 2 (≈ 2.8 µM) | 0.12 (≈ 0.168 µM) | 2 (≈ 2.8 µM) | 2 (≈ 2.8 µM) | 4 (≈ 5.6 µM) | 0.5 (≈ 0.7 µM) | 2 (≈ 2.8 µM) | 4 (≈ 5.6 µM) | 0.5 (≈ 0.7 µM) | > 64 | 0.25 (≈ 0.35 µM) | 4.5 |
| CCOC(=O)Oc1ccc([C@@H](NC(=O)Nc2cnc(Nc3ccc(S(N)(=O)=O)cc3)nc2O)C(=O)N[C@@H]2C(=O)N3C(C(=O)O)=C(CSc4nnnn4C)CS[C@H]23)cc1 [C, Natrium-7-{D-α-[3-(2-p-aminosulfonylanilino-4-hydroxy-5-pyrimidinyl)-ureido]-p-äthoxy-carbonyloxy-phenylacetamido}-3-[(1-methyl-tetrazol-5-yl)-thiomethyl]-ceph-3-em-4-carboxylat] | 0.25 (≈ 0.292 µM) | 0.12 (≈ 0.14 µM) | 1 (≈ 1.17 µM) | 0.5 (≈ 0.584 µM) | 0.5 (≈ 0.584 µM) | 0.25 (≈ 0.292 µM) | 4 (≈ 4.67 µM) | 8 (≈ 9.34 µM) | 1 (≈ 1.17 µM) | 4 (≈ 4.67 µM) | 0.12 (≈ 0.14 µM) | 0.6 |
| CO/N=C(\C(=O)N[C@@H]1C(=O)N2C(C(=O)O)=C(COC(N)=O)CS[C@H]12)c1ccco1 [Cefuroxim, reference compound] | 4 (≈ 9.43 µM) | 0.5 (≈ 1.18 µM) | 2 (≈ 4.71 µM) | 32 (≈ 75.4 µM) | 2 (≈ 4.71 µM) | 8 (≈ 18.9 µM) | > 128 | > 128 | 1 (≈ 2.36 µM) | 4 (≈ 9.43 µM) | 8 (≈ 18.9 µM) | > 100 |
| CC(=O)Oc1ccc([C@@H](NC(=O)Nc2cnc(Nc3ccc(S(N)(=O)=O)cc3)nc2O)C(=O)N[C@@H]2C(=O)N3C(C(=O)O)=C(CSc4nnnn4C)CS[C@H]23)cc1 [D, Natrium-7-{D-α-[3-(2-p-aminosulfonyl-anilino-4-hydroxy-5-pyrimidinyl)-ureido]-p-methylcarbonyloxy-phenylacetamido}-3-[(1-methyl-tetrazol-5-yl)-thiomethyl]-ceph-3-em-4-carboxylat] | 1 (≈ 1.21 µM) | 0.25 (≈ 0.302 µM) | 2 (≈ 2.42 µM) | 4 (≈ 4.84 µM) | 2 (≈ 2.42 µM) | 2 (≈ 2.42 µM) | 8 (≈ 9.68 µM) | 16 (≈ 19.4 µM) | 1 (≈ 1.21 µM) | 16 (≈ 19.4 µM) | 0.5 (≈ 0.605 µM) | 3 |
